This is an account of results in patent US7772252B2, “Heterocyclic substituted carbonyl derivatives and their use as dopamine D3 receptor ligands” (Aventis Pharmaceuticals Inc., priority 2001, dated 2010).

The target in this test is T1, cloned human dopamine D3 receptors (Homo sapiens, UniProt P35462).
T1 construct: expressed in transfected cells; membrane homogenate
As to the kind of experiment: [N-Methyl-3H]Spiroperidol binding to cloned human dopamine D3 receptors. The text has this: [N-Methyl-^3H]Spiroperidol Binding to Cloned Human Dopamine D3 Receptors
This assay measures the in vitro activity of compounds on cloned human dopamine (D3) receptors and predicts the direct dopamine-blocking properties of putative neuropsychiatric agents at human dopamine D3 receptors.
The D3 gene was isolated from a human striatal cDNA library (Stratagene). The gene was sequenced and sub-cloned into the expression vector RC/RSV (Invitrogen). CHO (Chinese Hamster Ovary) cells were stably transfected with 10 μg of the D3/RSV plasmid using the DOTAP method from Boehringer Mannheim and 72 clones that were G418 resistant were isolated. Using mRNA and binding displacement data a single high expressing clone was identified. This clone was then grown in large batches for the purpose of developing a 96 well format assay.
• 1. One plate (10 cm) with approximately 2-3 million D3 cells per plate is incubated with 1 ml of Trypsin-EDTA at room temperature for ˜2 min or until cells have lifted off plates. Four ml of Ham's F12+10% Fetal Bovine Serum+1% Penicillin/Streptomycin+G418 (400 μg/ml) medium are added to resuspend cells and 1 ml of this is added to each large plate (15 cm) containing 19 ml of the same medium as mentioned above. • 2. The 5 large plates are incubated at 37° C.+5% CO2 for ˜3 days or until the cells are confluent. • 3. After these plates are confluent, they are split into 10 large plates. Medium is aspirated off, 2 ml of Trypsin-EDTA are added to each plate and plates are incubated at RT for 2 min or until cells have lifted off the plate. Eight ml of the F12 medium (same medium as #1 above) are added to each plate (10 ml total) to resuspend the cells and 5 ml are transferred to the 2 new plates containing 15 ml of the F12 media. • 4. The 10 large plates are incubated at 37° C.+5% CO2 for ˜2 days or until the cells are confluent. • 5. The 10 large plates are split into 60 large plates (using Trypsin-EDTA as #3 except 4 ml of F12 medium are added to resuspend cells and 1 ml is aliquoted to 6 new plates containing 19 ml of F12 medium each). • 6. Plates are incubated at 37° C.+5% CO2 for ˜3 days or until cell are confluent. • 7. The 60 large plates are then split into 60 roller bottles (100-150 million cells/bottle). Medium is aspirated off, 2 ml of Trypsin-EDTA are added to each plate and incubated at RT for ˜2 minutes or until cells have lifted off plates. Eight ml of F12 medium are added to each plate to resuspend cells and the entire 10 ml are added to 1 roller bottle containing 90 ml of the F12 medium. • 8. The 60 roller bottles are immediately placed on their sides and transferred to the roller bottle incubator. They are incubated at 37° C.+5% CO2 for ˜3-5 days. Cells are spun at 30-40% motor speed in the Form a incubator. • 9. Medium is poured off and cells are washed 2× in PBS. • 10. Cells are then scraped off in 20 ml of PBS and the bottles are rinsed again with 5 ml of PBS to remove any remaining cells. Cells are stored on ice before membrane preparation. • 11. The yield for 60 D3 roller bottles has varied from ˜260-500 mg. • Note: All tissue culture reagents are from Gibco-BRL. C. Membrane Preparation
The cells are harvested into 250 ml centrifuge tubes with 100 volumes of cold phosphate buffered saline (PBS) and spun down (1200×G for 10 min at 4° C.). The medium is removed and 100 ml PBS are added to each centrifuge tube, cells are resuspened and spun down again. The PBS is removed and the final pellet is homogenized in an appropriate volume of 10% DMSO with a polytron on ice at a medium setting.
A 200 μl sample membrane homogenate is added to 200 μl of 1% SDS, vortexed and allowed to stand for 5 min. Aliquots (25, 50 and 100 μl) of this mixture are assayed in duplicate following the standard Bio-Rad DC protein assay protocol (kit catalog number 500-0112) and using reagent S. Absorbance readings are made at 750 nm (note: the most accurate protein OD readings are between 0.1-0.5 units). […]

The structures appear in SMILES notation. Where two headings read alike, the source gives them in different places.

T1 sequence (P35462 whole entry): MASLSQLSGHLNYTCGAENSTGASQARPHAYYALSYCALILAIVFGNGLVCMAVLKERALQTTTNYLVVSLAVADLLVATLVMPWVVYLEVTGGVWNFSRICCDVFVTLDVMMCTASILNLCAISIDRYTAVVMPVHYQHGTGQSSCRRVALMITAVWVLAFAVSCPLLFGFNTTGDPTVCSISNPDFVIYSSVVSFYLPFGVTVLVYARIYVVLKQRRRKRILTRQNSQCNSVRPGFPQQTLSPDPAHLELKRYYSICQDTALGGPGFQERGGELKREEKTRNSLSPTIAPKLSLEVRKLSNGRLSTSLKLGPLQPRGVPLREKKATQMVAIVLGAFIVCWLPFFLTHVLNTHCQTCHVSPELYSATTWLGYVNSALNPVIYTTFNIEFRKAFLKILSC

Take `O=C(N[C@H]1CC[C@H](O)CC1)[C@@H]1C[C@H]1CN1CCC(c2noc3ccsc23)CC1` [compound 830251]: the Ki (read-out: D3 Ki) stood at 11.4 nM. Turning to `O=C(NCCN1CCCC1)[C@@H]1C[C@H]1CN1CCN(c2csc3cc(C(F)(F)F)ccc23)CC1` [compound 831886], under “read-out: D3 Ki”, the Ki was 16.8 nM.

On to `O=C([C@@H]1C[C@H]1CN1CCN(c2csc3cc(C(F)(F)F)ccc23)CC1)N1CCN(CCOCCO)CC1` [compound 832581], for which, under “read-out: D3 Ki”, the Ki worked out at 67.3 nM. Same read-out and setting: then `COc1ccc2c(c1)c(N1CCN(C[C@@H]3C[C@H]3C(=O)NC3CCN(Cc4ccc(F)c(F)c4)CC3)CC1)nn2C` [compound 833626], with 2.17 nM.

`C[C@H]1CC[C@H](NC(=O)[C@@H]2C[C@H]2CN2CCC(c3nn(-c4cccnc4)c4ccccc34)CC2)CC1` [compound 833695]: the Ki (read-out: D3 Ki) was found to be 176 nM.

Consider `O=C([C@@H]1C[C@H]1CN1CCN(c2csc3cc(C(F)(F)F)ccc23)CC1)N1CCC(n2ccnc2)CC1` [compound 833513], for which, where the note is “read-out: D3 Ki”, the Ki came out at 43.1 nM.

Take `O=C(NCCCCc1cccnc1)[C@@H]1C[C@H]1CN1CCC(c2noc3ccsc23)CC1` [compound 832530]: where the note is “read-out: D3 Ki”, the Ki was 16 nM. On to `COc1cccc2c(C3CCN(C[C@@H]4C[C@H]4C(=O)N[C@H]4CC[C@H](C)CC4)CC3)noc12` [compound 831809], for which, where the note is “read-out: D3 Ki”, the Ki is 0.0284 nM.

In the case of `C[C@H]1CC[C@H](NC(=O)CCCN2CCN(c3csc4cc(C(F)(F)F)ccc34)CC2)CC1` [compound 826804], the Ki (read-out: d3Ki) was determined as 67.4 nM. For `COc1ccc2c(c1)c(N1CCN(C[C@@H]3C[C@H]3C(=O)NC3CCN(CC4CC4)CC3)CC1)nn2C` [compound 832744], the Ki (read-out: D3 Ki) was found to be 1.37 nM. Regarding `C[C@H]1CC[C@H](NC(=O)[C@H]2C[C@@H]2CN2CCC(c3cc4ccccc4s3)CC2)CC1` [compound 831147], the Ki (read-out: D3 Ki) is 40.8 nM. For `O=C(NCCCN1CCCCC1)[C@@H]1C[C@H]1CN1CCC(c2noc3cc(C(F)(F)F)ccc23)CC1` [A002287764], where the note is “read-out: D3 Ki”, the Ki is 0.48 nM. With `O=C(NCc1cccc(Oc2ccccc2)c1)C1CC1CN1CCC(c2noc3ccsc23)CC1` (racemic) [compound 831735], the Ki (read-out: D3 Ki) was determined as 81.3 nM. Consider `COc1ccc2[nH]nc(N3CCN(CC4CC4C(=O)NC4CCC(C)CC4)CC3)c2c1` (racemic) [compound 830439], for which the Ki (read-out: D3 Ki) was found to be 17.6 nM.

For `O=C(NCCCn1cnc2ccccc21)[C@@H]1C[C@H]1CN1CCN(c2csc3cc(C(F)(F)F)ccc23)CC1` [A002243384], the Ki (read-out: D3 Ki) worked out at 133 nM. In the case of `CC(C)(C)OC(=O)N1CCCC(CNC(=O)[C@@H]2C[C@H]2CN2CCN(c3csc4cc(C(F)(F)F)ccc34)CC2)C1` (mixture of isomers) [compound 832501], for the setting “read-out: D3 Ki”, the Ki was found to be 41.4 nM. `O=C(NCCCN1CCCCC1)[C@@H]1C[C@H]1CN1CCC(c2noc3ccsc23)CC1` [compound 831045]: where the note is “read-out: D3 Ki”, the Ki was determined as 335 nM. Regarding `COc1ccc2c(c1)c(N1CCN(C[C@@H]3C[C@H]3C(=O)NCC3CCNCC3)CC1)nn2C` [compound 833136], the Ki (read-out: D3 Ki) is 14.3 nM. As to `C[C@H]1CC[C@H](NC(=O)[C@@H]2C[C@H]2CN2CCN(c3nn(-c4ccc(F)cc4)c4ccccc34)CC2)CC1` [compound 833701], the Ki (read-out: D3 Ki) came out at 1.28 nM. Turning to `CN1CCN(CCCNC(=O)[C@@H]2C[C@H]2CN2CCN(c3csc4cc(C(F)(F)F)ccc34)CC2)CC1` [compound 832579], the Ki (read-out: D3 Ki) was found to be 6.29 nM. With `O=C(NCCCc1ccccc1)[C@@H]1C[C@H]1CN1CCN(c2csc3cc(C(F)(F)F)ccc23)CC1` [compound 831270], the Ki (read-out: D3 Ki) came out at 17.8 nM. For the compound `O=C(NC1CCN(Cc2ccc(F)cc2)CC1)C1CC1CN1CCC(c2noc3ccsc23)CC1` (racemic) [compound 831993], the Ki (read-out: D3 Ki) is 2.51 nM.

For the compound `Cc1cccc(CN2CCC(NC(=O)[C@@H]3C[C@H]3CN3CCN(c4csc5cc(C(F)(F)F)ccc45)CC3)CC2)c1` [compound 832789], the Ki (read-out: D3 Ki) came out at 3.05 nM. With `C[C@H]1CC[C@H](NC(=O)[C@@H]2C[C@H]2CN2CCN(c3nn(-c4ccc(F)cc4)c4ccsc34)CC2)CC1` [compound 832850], for the setting “read-out: D3 Ki”, the Ki amounted to 0.264 nM. On the same count and under the same terms, as for `O=C(NCC1CCNCC1)[C@@H]1C[C@H]1CN1CCC(c2noc3c(C(F)(F)F)cccc23)CC1` [A002440437A], the figure is 41.2 nM; as for `O=C([C@@H]1C[C@H]1CN1CCC(c2noc3ccsc23)CC1)N1CCCC(Cn2ccnc2)C1` (mixture of isomers) [compound 832269], 5.1 nM. Turning to `CCOC(=O)c1cc2ccc(N3CCCN(CC4CC4C(=O)NC4CCC(CC)CC4)CC3)cc2s1` (racemic) [compound 830128], for the setting “read-out: D3 Ki”, the Ki is 69.7 nM. On the same count and under the same terms, then `COc1ccc2c(c1)c(N1CCN(C[C@@H]3C[C@H]3C(=O)N3CCCC(Cn4ccnc4)C3)CC1)nn2C` (mixture of isomers) [compound 834173], with 5.15 nM; and `O=C([C@@H]1C[C@H]1CN1CCN(c2nc3cccc4c3n2CCC4)CC1)N1CCC[C@@H](Cn2ccnc2)C1` [A002438663], with 1.37 nM. On the same count and under the same terms, as for `O=C([C@@H]1C[C@H]1CN1CCC(c2noc3ccsc23)CC1)N1CCN(Cc2ccc(Cl)c(Cl)c2)CC1` [compound 832532], the figure is 14.4 nM; as for `C[C@H]1CC[C@H](NC(=O)[C@@H]2C[C@H]2CN2CCC(c3n[nH]c4cc(Br)ccc34)CC2)CC1` [compound 833694], 46.9 nM; as for `O=C(NCCc1ccccc1Cl)C1CC1CN1CCC(c2noc3ccsc23)CC1` (racemic) [compound 831798], 46.3 nM. As for `O=C(NCCCc1cc[nH]c1)C1CC1CN1CCC(c2noc3ccsc23)CC1` (racemic) [compound 832192], the Ki (read-out: D3 Ki) was 7.81 nM. Consider `O=C(NCCc1ccc(F)cc1)C1CC1CN1CCC(c2noc3ccsc23)CC1` (racemic) [compound 831802], for which the Ki (read-out: D3 Ki) is 13.4 nM. With `O=C(NCCCN1CCCCC1)[C@@H]1C[C@H]1CN1CCC(c2csc3cc(C(F)(F)F)ccc23)CC1` [compound 834015], the Ki (read-out: D3 Ki) was 1.24 nM. For the compound `Cn1nc(N2CCN(C[C@@H]3C[C@H]3C(=O)NCCCn3ccnc3)CC2)c2sccc21` [compound 831830], the Ki (read-out: D3 Ki) is 0.76 nM. On the same count and under the same terms, as for `CCC1CCC(NC(=O)C2CC2CN2CCC(c3cc4cc(OC)cc(Br)c4o3)CC2)CC1` (racemic) [compound 830112], the figure is 54 nM; as for `O=C(C1CC1CN1CCC(c2noc3ccsc23)CC1)N1CCC(c2cc(-c3ccco3)[nH]n2)CC1` (racemic) [compound 831704], 47.5 nM. Turning to `CC(C)COC(=O)n1c(CCCNC(=O)C2CC2CN2CCC(c3noc4ccsc34)CC2)nc2ccccc21` (racemic) [compound 831621], the Ki (read-out: D3 Ki) is 70.3 nM.

Consider `O=C(C1CC1CN1CCC(c2noc3ccsc23)CC1)N1CCN(CCc2ccccc2)CC1` (racemic) [compound 832057], for which the Ki (read-out: D3 Ki) turned out to be 21.7 nM. Same read-out and setting: as for `CCC1CCC(NC(=O)C2CC2CN2CCN(Cc3ccccc3)CC2)CC1` (racemic) [compound 827241], the figure is 89.5 nM; as for `CCN(CC)C(=O)C1CCN(C(=O)C2CC2CN2CCC(c3noc4ccsc34)CC2)CC1` (racemic) [compound 831738], 223 nM; as for `O=C(NCCc1c[nH]c2ccccc12)[C@@H]1C[C@H]1CN1CCN(c2csc3cc(C(F)(F)F)ccc23)CC1` [compound 831271], 6.57 nM. On to `Cn1nc(C2CCN(C[C@@H]3C[C@H]3C(=O)NCC3CCNCC3)CC2)c2sccc21` [A002440434A], for which, where the note is “read-out: D3 Ki”, the Ki came out at 462 nM. Still for that read-out and setting: then `COc1cccc2c(C3CCN(C[C@@H]4C[C@H]4C(=O)NCC45CC6CC(CC(C6)C4)C5)CC3)nn(C)c12` [compound 834057], with 89.4 nM; and `O=C(NC1CCN(Cc2ccc(Cl)cc2)CC1)[C@@H]1C[C@H]1CN1CCC(c2noc3ccsc23)CC1` [compound 832729], with 1.67 nM.
